Key:
[1] = tested on: Nalm-6 leukemia cells; experiment: Inhibition of Nalm-6 leukemia cell growth (CellTiter-Glo); type: cell-based; conditions: 72 hours treatment; for IC50: Homo sapiens, NALM-6
Method: Treatment of cells. Nalm-6 leukemia cells were grown to the logarithmic growth phase and seeded into 24-well plates. Plated cells were incubated at 37° C. in a 5% CO2 humidified incubator for 24 hours and treated with various concentrations of compounds. Treated cells were further incubated for 72 hours and then were examined for cell proliferation. Cell proliferation was determined using the CellTiter-Glo Luminescence Cell Viability assay (Promega Corporation, Madison, Wis.) according to the manufacturer's protocol. The calculated inhibition rate was determined with the following formula: Inhibition rate (%)=(1−Luminescence of experimental group/Luminescence of control group)×100. The 1050 was the calculated concentration of a compound needed to inhibit half of the maximum cell growth (equivalent to cell growth in control group) based on the corresponding dose-response curve under the described experimental conditions.

[2] = target: MEF2D and HDAC4 protein interactions (Homo sapiens (Human), UniProt Q14814); experiment: Mammalian two-hybrid assay (GAL4-MEF2D / HDAC4-VP16 luciferase reporter); type: cell-based; conditions: for Relative Activity, I / IC50 / Inhibition of MEF2D/HDAC4 interactions (in words): HeLa cells; for Relative Activity, I: test compound 10 μM overnight, ratio X/Y versus DMSO control, expressed in percentile, low = strong inhibition; for IC50: concentration when X/Y equals 50; for Group: class by relative activity I at 10 μM; for Inhibition of MEF2D/HDAC4 interactions (in words): two-hybrid assay
Sequence of MEF2D and HDAC4 protein interactions (Q14814 whole entry, species assumed, the tested form may be a part): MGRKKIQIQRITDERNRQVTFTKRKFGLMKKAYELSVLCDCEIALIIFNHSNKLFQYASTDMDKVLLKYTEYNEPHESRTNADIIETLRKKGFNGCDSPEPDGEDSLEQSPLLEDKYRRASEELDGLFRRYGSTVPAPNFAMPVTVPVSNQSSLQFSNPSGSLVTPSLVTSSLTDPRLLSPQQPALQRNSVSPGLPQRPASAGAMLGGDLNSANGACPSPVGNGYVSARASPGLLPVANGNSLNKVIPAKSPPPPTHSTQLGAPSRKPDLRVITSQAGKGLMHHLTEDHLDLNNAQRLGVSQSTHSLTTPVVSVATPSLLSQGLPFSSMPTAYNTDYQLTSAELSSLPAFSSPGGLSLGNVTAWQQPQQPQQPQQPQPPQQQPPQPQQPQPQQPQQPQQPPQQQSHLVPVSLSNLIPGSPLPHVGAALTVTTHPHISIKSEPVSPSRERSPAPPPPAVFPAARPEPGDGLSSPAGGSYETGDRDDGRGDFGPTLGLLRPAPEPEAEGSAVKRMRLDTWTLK
Text: Detection of MEF2D and HDAC4 interactions. In this mammalian two-hybrid assay, HDAC4 and MEF2D proteins were used as representative members of their respective protein families because the protein-protein interactions involved in the recruitment of class IIa HDACs by MEF2 were highly conserved. Two separate DNA constructs were made with MEF2D fused with the GAL4 DNA binding domain (GAL4-MEF2D) and with the MEF2-binding motif of HDAC4 (AA 155-220) fused with the viral transactivator VP-16 (HDAC4-VP16) (FIG. 1). Human epithelial carcinoma cells (HeLa) were co-transfected with the two DNA constructs (GAL4-MEF2D and HDAC4-VP16) and a reporter plasmid (Gal4Luc). […] MEF2D and HDAC4 protein interactions were detected as a result of the GAL4-MEF2D and HDAC4-VP16 protein complex binding a DNA promoter on the reporter plasmid (Gal4Luc) and driving cellular expression of a luciferase gene (FIG. 1). The measured luciferase protein signal was proportional to the amount of MEF2D and HDAC4 protein interactions occurring with the cell.
The relatively stronger signal from the GAL4VP16 positive control construct was probably due to the fact that the activation domain of VP16 was covalently linked to GAL4, whereas in the mammalian two-hybrid assay it was recruited by protein-protein interactions between HDAC4 and MEF2 (FIG. 2). This assay permitted the detection of the interactions between HDAC4 and MEF2D with minimal interference from endogenous factors. The HDAC4 fragment lacked the catalytic domain so that the deacetylase activity was excluded from the assay.
Detection of inhibition of MEF2D and HDAC4 interactions. Next, the assay was used to test whether the compounds could disrupt the interactions between MEF2D and HDAC4. After co-expressing the GAL4-MEF2D and HDAC4-VP16 DNA constructs and reporter plasmid, the HeLa cells were treated with a test compound (10 μM) overnight. Cells transfected with the positive control GAL4VP16 fusion construct and reporter plasmid were also treated with the test compound (10 μM) overnight. As another control, DMSO was added (but kept below 0.2% V/V) to cells transfected with the positive GAL4VP16 fusion construct or the GAL4-MEF2D and HDAC4-VP16 DNA constructs. A luciferase assay was performed as described above according to the manufacturer's protocol (Promega). The luciferase response was normalized against the Renilla Luciferase as an internal control.
The relative activity and IC50 calculations. […] The relative activity, I, was the ratio of former to later, i.e. X/Y, expressed in percentile. […] The IC50 was the concentration of the compounds when X/Y equals 50.

## Nc1ccccc1NC(=O)CCCCCC(=O)Nc1cncc(Br)c1 [CC7, N^1-(2-aminophenyl)-N^7-(5-bromopyridin-3-yl)heptanediamide]
[1]
  IC50: 1360 nM
[2]
  Relative Activity, I: 5.7
  IC50: 110 nM
  Group: A (A (I < 22 included))

## Nc1ccccc1NC(=O)CCCCCC(=O)NCc1cccnc1 [CC1, N^1-(2-aminophenyl)-N^7-(pyridin-3-ylmethyl)heptanediamide]
[1]
  Nalm-6 leukemia cell growth inhibition (in words): mild inhibitory effect
  IC50: > 10000 nM
[2]
  Relative Activity, I: 79.2
  Group: C (C (50 < I < 100 included))
  Inhibition of MEF2D/HDAC4 interactions (in words): mild inhibitory effect

## Nc1ccccc1NC(=O)CCCCCNC(=O)c1ccc(Br)cc1 [CC5, N-(6-((2-aminophenyl)amino)-6-oxohexyl)-4-bromobenzamide]
[1]
  IC50: 1380 nM
[2]
  Relative Activity, I: 3.6
  IC50: 70 nM
  Group: A (A (I < 22 included))

## Nc1ccccc1NC(=O)CCCCCC(=O)Nc1ccccc1Br [CC6, N^1-(2-aminophenyl)-N^7-(2-bromophenyl)heptanediamide]
[1]
  Nalm-6 leukemia cell growth inhibition (in words): strong growth inhibition
  IC50: 2050 nM
[2]
  Relative Activity, I: 62.6
  Group: C (C (50 < I < 100 included))
  Inhibition of MEF2D/HDAC4 interactions (in words): weaker inhibition

## Nc1ccncc1NC(=O)CCCCCC(=O)Nc1cccc(Br)c1 [CC4, N^1-(4-aminopyridin-3-yl)-N^7-(3-bromophenyl)heptanediamide]
[1]
  Nalm-6 leukemia cell growth inhibition (in words): mild inhibitory effect
  IC50: > 10000 nM
[2]
  Relative Activity, I: 79.5
  Group: C (C (50 < I < 100 included))
  Inhibition of MEF2D/HDAC4 interactions (in words): mild inhibitory effect

## Nc1ccccc1NC(=O)CCCCCC(=O)Nc1cccc(O)c1 [CC2, N^1-(2-aminophenyl)-N^7-(3-hydroxyphenyl)heptanediamide]
[1]
  IC50: 1460 nM
[2]
  Relative Activity, I: 4.7
  IC50: 90 nM
  Group: A (A (I < 22 included))

## Nc1ccccc1NC(=O)CCCCCC(=O)Nc1ccc(O)cc1 [CC3, N^1-(2-aminophenyl)-N^7-(4-hydroxyphenyl)heptanediamide]
[1]
  IC50: 2610 nM
[2]
  Relative Activity, I: 5.4
  IC50: 100 nM
  Group: A (A (I < 22 included))

Reference: patent US9133105B2, “Transcription factor modulators” (C & C BIOPHARMA, LLC, priority 2013, dated 2015)
